Legend:
Hep-G2 cells [1] = assay: Unspecific cytotoxicity (LDH release); assay type: cell-based, human; conditions: 1–10 µM, 3 and 24 h
[2] = test system: caspase-3 activity in DU145 cells; assay: Apoptosis-specific caspase-3 activation (AC-DEVD-AMC cleavage); assay type: cell-based, human; conditions: 24 h treatment, 1–10 µM
Method: (§1) Changes in caspase-3 activity were measured by the cleavage of the fluorogenic substrate AC-DEVD-AMC (EMD Millipore, Billerica, MA, USA), as described previously. […] Subsequently, the lysates were incubated for 1 h at 37 °C with a substrate solution containing 20 μg/mL AC-DEVD-AMC, 20 mM HEPES, 10% glycerol and 2 mM DTT at pH 7.5.

[3] = test system: caspase-3 activity in Hep-G2 cells; assay: as above; assay type: cell-based, human; conditions: 24 h treatment, 1–10 µM
Method: as §1

DU145 cells [4] = assay: Unspecific cytotoxicity (LDH release); assay type: cell-based, human; conditions: 1–10 µM, 3 and 24 h
Method: To exclude unspecific cytotoxicity as the driving mode of action for antiproliferative effects, the release of lactate dehydrogenase (LDH) from DU145 cells was determined after 3 h and 24 h of treatment using the Cytotoxicity Detection Kit PLUS LDH (Roche Diagnostics GmbH, Mannheim, Germany). The assay was performed as described earlier. Cytotoxicity was determined by subtracting the percentage of LDH release into the supernatant under control conditions of those from treated samples. Measurements were performed in duplicate in n = 3 independent experiments and mean percentage changes ± SEM as compared to controls are shown.

SMZ1 cells = assay: IC50 by Annexin-V/7AAD dual staining, flow cytometry; assay type: cell-based; conditions: Homo sapiens, as determined after 48 h, means ± SEM, n ≥ 3, read-out: Growth inhibitory activity IC50, SMZ1
Method: Stock solutions (10 mM) prepared by dissolution in DMSO were stored at −20 °C. Working solutions were always freshly prepared before each experiment by dilution of stock solution with medium. The final DMSO concentration never exceeded 0.25%. Treatment-induced changes in cell number were determined by crystal violet (N-hexamethylpararosaniline from Sigma Aldrich) staining. 1000 cells/well (DU145) or 1500 cells/well (Hep-G2) were seeded in 96-well plates and maintained for adherence in an incubator (37 °C, 5% CO2, humidified atmosphere) for 48 h prior to the beginning of the treatment. […] Thereafter, the cells were fixed with 1% glutaraldehyde and stained with 0.1% crystal violet. The unbound dye was removed by rinsing with water. Bound crystal violet was solubilized with 0.2% Triton X-100 (Sigma-Aldrich). Light extinction of crystal violet, which increases linearly with the cell number, was analyzed at 570 nm using an ELISA-Reader (Dynex Technologies, Denkendorf, Germany). For T-cell leukemia/lymphoma cell lines apoptosis was determined using dual staining for Annexin-V and 7AAD via flow cytometry.

Hep-G2 cells [5] = assay: Cytosolic ROS formation (CellROX Orange fluorescence microscopy); assay type: cell-based, human; conditions: 6–24 h
Method: (§2) Untreated cells incubated with 1.6 mM H2O2 for 30 min served as positive controls. CellROX® Orange reagent (1 µM) was applied, when adding the test compounds. Formation of ROS was measured after 3 h, 6 h, 12 h (not shown) and 24 h using ZOE™ Fluorescent Cell Imager (Biorad, Munich, Germany). n = 3 independent experiments performed in triplicate for each condition.

DU145 cells [6] = assay: as above; assay type: cell-based, human; conditions: 6–24 h
Method: as §2

Hep-G2 cells [7] = assay: Western blot in Hep-G2 cells (acetyl-H3, Apaf-1, Bcl-2); assay type: cell-based, human; conditions: 24 h
Method: Western blots were performed as described earlier. Cells were seeded in 100 mm petri dishes, grown to almost confluency, treated for 24 h, washed and frozen, followed by lysis with RIPA Buffer, added with one cOmplete™ Mini protease Inhibitor tablet/10 mL (Roche), and quantification with Pierce^TM BCA Protein Assay Kit (Thermo Fisher Scientific). Thereafter protein levels were normalized to untreated controls so equal protein loading of 20 µg/lane. Laemmli Buffer and β-mercaptoethanol were added before probes were desaturated at 96 °C for 10 min. First, 7.5% or 12% SDS gels (Biorad, Munich, Germany) were loaded with proteins and electrophoresis was done. Thereafter, proteins were transferred to activated polyvinylidene difluoride membranes (PVDF) by electroblotting. Finally, the membranes were blocked with 1% BSA and incubated with primary antibodies over night at 4 °C. […] Only the Jurkat cells had already a high level of α-tubulin in untreated cells and, thus, drug-induced changes were not detectable in these cells.
(§3) Blots were washed three times with 1% TBS-Tween and incubated with anti-mouse or anti-rabbit peroxidase-coupled anti-IgG secondary antibodies (1:5000–1:10,000) at room temperature for 60 min. Subsequently, antibody bondage was illustrated using Clarity and Clarity Max ECL Western Blotting Substrates (Biorad, Munich, Germany) for detection and Celvin-S developer (Biostep, software SnapAndGo Vs 1.8.1) for development. […] Values were normalized to β-actin expression, which served as a loading control and compared to untreated control expressions which was set at 1. The mean ± SEM of the relative values to control are illustrated with Graph Pad Prism 8.

DU145 cells [8] = assay: Western blot in DU145 cells (acetyl-H3, PARP, EGFR, P-mTOR); assay type: cell-based, human; conditions: 24 h
Method: Western blots were performed as described earlier. Cells were seeded in 100 mm petri dishes, grown to almost confluency, treated for 24 h, washed and frozen, followed by lysis with RIPA Buffer, added with one cOmplete™ Mini protease Inhibitor tablet/10 mL (Roche), and quantification with Pierce^TM BCA Protein Assay Kit (Thermo Fisher Scientific). Thereafter protein levels were normalized to untreated controls so equal protein loading of 20 µg/lane. Laemmli Buffer and β-mercaptoethanol were added before probes were desaturated at 96 °C for 10 min. First, 7.5% or 12% SDS gels (Biorad, Munich, Germany) were loaded with proteins and electrophoresis was done. Thereafter, proteins were transferred to activated polyvinylidene difluoride membranes (PVDF) by electroblotting. Finally, the membranes were blocked with 1% BSA and incubated with primary antibodies over night at 4 °C.
as §3

## O=C(CCCCCCC(=O)Nc1ccccc1)NO [SAHA, suberoylanilide hydroxamic acid, reference compound]
Hep-G2 cells [1]
  LDH release (unspecific cytotoxicity): no relevant induction of unspecific cytotoxicity
[2]
  caspase-3 activation: comparable caspase-3 inductions
[3]
  caspase-3 activation: comparable caspase-3 inductions
DU145 cells [4]
  LDH release (unspecific cytotoxicity): no relevant induction of unspecific cytotoxicity
SMZ1 cells
  IC50: 2870 ± 330 nM
Hep-G2 cells [5]
  cytosolic ROS formation: much weaker ROS increase
DU145 cells [6]
  cytosolic ROS formation: much weaker ROS increase
Hep-G2 cells [7]
  acetylated histone H3 level: dose-dependent rise of H3 acetylation
DU145 cells [8]
  EGFR protein expression: pronounced and significant suppression in the expression of the EGFR
  acetylated histone H3 level: dose-dependent rise of H3 acetylation

— article PMC8704709, “Improved Anticancer Activities of a New Pentafluorothio-Substituted Vorinostat-Type Histone Deacetylase Inhibitor” (Pharmaceuticals, 2021)
